Experimental data from patent US8461124B2, “Five- and six-membered conformationally locked 2′,4′-carbocyclic ribo-thymidines for the treatment of infections and cancer” (priority 2007, dated 2013).

Assays:
complementary DNA = assay: Thermal denaturation (UV melting) of AON duplexes with complementary DNA; type: binding; settings: for Tm/° C. with DNA: 1 μM of each strand, medium salt buffer pH 7.5, average of at least three runs; for ΔTm* (Tm relative to DNA compliment): relative to native AON 1/DNA duplex
complementary RNA = assay: Thermal denaturation (UV melting) of AON duplexes with complementary RNA; type: binding; settings: for Tm/° C. with RNA: 1 μM of each strand, medium salt buffer pH 7.5, average of at least three runs; for ΔTm (Tm relative to RNA compliment): relative to native AON 1/RNA duplex
Experimental: All 17 modified AONs have been purified as a single component on PAGE (20% polyacrylamide with 7 Molar urea), extracted with 0.3 M NaOAc and desalted with C-18 reverse phase cartridge to give AONs in >99% purity and correct mass have been obtained by MALDI-TOF mass spectroscopy for each one them (Table 1). Determination of the Tm of the AON/RNA hybrids was carried out in the following buffer: 57 mM Tris-HCl (pH 7.5), 57 mM KCl, 1 mM MgCl2. Absorbance was monitored at 260 nm in the temperature range from 20° C. to 90° C. using UV spectrophotometer equipped with Peltier temperature programmer with the heating rate of 1° C. per minute. Prior to measurements, the samples (1 μM of AON and 1 μM RNA mixture) were pre-annealed by heating to 90° C. for 5 min followed by slow cooling to 4° C. and 30 min equilibration at this temperature and are average of at least three independent runs.

[1] = Stability of 5′-32P-labeled AONs in human blood serum (PAGE autoradiography); type: in vitro ADME
Experimental: FIG. 4. Autoradiograms of 20% denaturing PAGE showing degradation patterns of 5′-^32P-labeled AONs in human blood serum (Table 1 for all AON sequences). Inset A: AON 1 and LNA-modified AONs 2-5. Inset B: Carbocyclic-LNA-modified AONs 6-9. Inset C: Carbocyclic-ENA-modified AONs 10-13 and Inset D: aza-ENA-modified AONs 14-17. Time points are taken after 0, ½, 1 h, 2 h, 5 h, 7 h, 9 h, 12 h, for AONs 1-5 and 0 h, 6 h, 8 h, 12 h, 24 h, 36 h and 48 h of incubation for AONs 6-17 at 21° C. (see Experimental Section for details).
Modified sequences (Table 1), ^32P-labeled at 5′-ends, were digested in human blood serum at 21° C. as shown in the PAGE autoradiograms (Insets A, B, C and D in FIG. 4). In order to understand
AONs (6 μL) at 2 μM concentration (5′-end ^32P labeled with specific activity 80 000 cpm) were incubated in […] of human blood serum (male AB) at 21° C. (total reaction volume was 36 μL) and the experiments were repeated twice up to 48 h. Aliquots (3 μL) were taken at 0, 30 min, 1, 2, 5, 7, 8, 9, 12, 24, 36, 48 h and quenched with 7 μL of solution containing 8 M urea and 50 mM EDTA, resolved in 20% polyacrylamide denaturing (7 M urea) gel electrophoresis and visualized by autoradiography. […] Since no new prominent cleavage products were found toward the later time points, we considered those prominent stable initial fragments as 100% during the last time points (12-48 h).

Substance	Tm/° C. with DNA (complementary DNA) [°C]	ΔTm* (Tm relative to DNA compliment) (complementary DNA)	Tm/° C. with RNA (complementary RNA) [°C]	ΔTm (Tm relative to RNA compliment) (complementary RNA)	other results
3′-d(CTT(5-carbo)CTTTTTTACTTC)-5′ (antisense CTTCTTTTTTACTTC; carbocyclic-LNA-T at position 3 from 3'-end, chemistry not fully specified) [AON 6, carbocyclic-LNA-T modified AON, position 3 from 3′-end]	45	0.00 °C	47.5	+3.5 °C	time to give the n−1 fragment (hydrolysis of 3′-terminal nucleotide) ([1]; human blood serum, 21° C.): 2 h
3′-d(CTT(6-carbo)CTTTTTTACTTC)-5′ (antisense CTTCTTTTTTACTTC; carbocyclic-ENA-T at position 3 from 3'-end, chemistry not fully specified) [AON 10, carbocyclic-ENA-T modified AON, position 3 from 3′-end]	43.5	−1.5 °C	45.5	+1.5 °C	time to give the n−1 fragment (hydrolysis of 3′-terminal nucleotide) ([1]; human blood serum, 21° C.): 2 h
3′-d(CTT(LNA)CTTTTTTACTTC)-5′ (antisense CTTCTTTTTTACTTC; LNA-T at position 3 from 3'-end, chemistry not fully specified) [AON 2, LNA-T modified AON, position 3 from 3′-end]	47	+2 °C	48	+4 °C	serum stability compared with native AON 1 ([1]; human blood serum cleavage pattern): only slightly more stable than the native counterpart; time to full degradation ([1]; human blood serum, 21° C.): 9 h; time to give the n−1 fragment ([1]; human blood serum, 21° C.): 35 min; time to give the n−2 fragment as major product ([1]; human blood serum, 21° C.): 5 h
3′-d(CTT(aza-ENA)CTTTTTTACTTC)-5′ (antisense CTTCTTTTTTACTTC; aza-ENA-T at position 3 from 3'-end, chemistry not fully specified) [AON 14, aza-ENA-T modified AON, position 3 from 3′-end]					time to give the n−1 fragment (hydrolysis of 3′-terminal nucleotide) ([1]; human blood serum, 21° C.): ≤ 5 h; fraction of n−1 fragment ([1]; human blood serum, after 12 h): ca. 65%; fraction of n−2 fragment ([1]; human blood serum, after 12 h): ~35%; fraction of n−1 fragment ([1]; human blood serum, within 5 h): ca. 85%; fraction of n−2 fragment ([1]; human blood serum, within 5 h): ca. 15%
3′-d(CTTCT T(LNA)TTTTACTTC)-5′ [AON 3]	46.5	+1.5 °C	49	+5 °C	
3′-d(CTTCTT(5-carbo)TTTTACTTC)-5′ (antisense CTTCTTTTTTACTTC; carbocyclic-LNA-T at position 6 from 3'-end, chemistry not fully specified) [AON 7, carbocyclic-LNA-T modified AON, position 6 from 3′-end]	44	−1.00 °C	49	+5 °C	
3′-d(CTTCTT(6-carbo)TTTTACTTC)-5′ [AON 11]	39.5	−5.5 °C	45.5	+1.5 °C	
3′-d(CTTCTT(aza-ENA)TTTTACTTC)-5′ (antisense CTTCTTTTTTACTTC; aza-ENA-T at position 6 from 3'-end, chemistry not fully specified) [AON 15, aza-ENA-T modified AON, position 6 from 3′-end]	42.5	−2.5 °C	46.5	+2.5 °C	
3′-d(CTTCTTTT(5-carbo)TTACTTC)-5′ (antisense CTTCTTTTTTACTTC; carbocyclic-LNA-T at position 8 from 3'-end, chemistry not fully specified) [AON 8, carbocyclic-LNA-T modified AON, position 8 from 3′-end]	44	−1.00 °C	48	+4 °C	
3′-d(CTTCTTTT(6-carbo)TTACTTC)-5′ [AON 12]	40.0	−5.0 °C	45.5	+1.5 °C	
3′-d(CTTCTTTT(LNA)TTACTTC)-5′ (antisense CTTCTTTTTTACTTC; LNA-T at position 8 from 3'-end, chemistry not fully specified) [AON 4, LNA-T modified AON, position 8 from 3′-end]	45.0	0.0 °C	49	+5 °C	
3′-d(CTTCTTTT(aza-ENA)TTACTTC)-5′ (antisense CTTCTTTTTTACTTC; aza-ENA-T at position 8 from 3'-end, chemistry not fully specified) [AON 16, aza-ENA-T modified AON, position 8 from 3′-end]	42	−3 °C	47.5	+3.5 °C	
3′-d(CTTCTTTTTT(5-carbo)ACTTC)-5′ (antisense CTTCTTTTTTACTTC; carbocyclic-LNA-T at position 10 from 3'-end, chemistry not fully specified) [AON 9, carbocyclic-LNA-T modified AON, position 10 from 3′-end]	43.0	−2.00 °C	47.5	+3.5 °C	
3′-d(CTTCTTTTTT(6-carbo)ACTTC)-5′ [AON 13]	39.5	−5.5 °C	45.5	+1.5 °C	
3′-d(CTTCTTTTTT(LNA)ACTTC)-5′ (antisense CTTCTTTTTTACTTC; LNA-T at position 10 from 3'-end, chemistry not fully specified) [AON 5, LNA-T modified AON, position 10 from 3′-end]	46	+1 °C	49	+5 °C	
3′-d(CTTCTTTTTT(aza-ENA)ACTTC)-5′ (antisense CTTCTTTTTTACTTC; aza-ENA-T at position 10 from 3'-end, chemistry not fully specified) [AON 17, aza-ENA-T modified AON, position 10 from 3′-end]	42	−3 °C	48	+4 °C	
(1R,3R,4R,5R,7S)-7-(2-(Cyanoethoxy-(diisopropylamino)-phosphinoxy)-1-(4,4′-dimethoxytrityloxy methyl)-3-(thymin-1-yl)-2-oxa-bicyclo[2.2.1]heptane [Compound 14]	44.5	−0.5 °C	48	+4 °C	
